From ChEMBL document CHEMBL1139951, “Synthesis and local anesthetic activity of fluoro-substituted imipramine and its analogues” (Bioorg Med Chem Lett, 2007) come the findings set out here.

A short description of data set [1]: Dissociation constant, pKa by potentiometric titration method. In kind it is physicochemical.
Data set [2] concerns Sciatic nerve. The data set is described as follows: Anesthetic activity in toad sciatic nerves assessed as sciatic nerve block activity. It counts as functional, Bufo bufo.
The subject of data set [3] is Sciatic nerve. The data set is described as follows: Anesthetic activity in toad sciatic nerves assessed as latent period of sciatic nerve block. It counts as functional, Bufo bufo.
Data set [4] deals with Sciatic nerve. Kind of data set: Anesthetic activity in toad sciatic nerves assessed as sciatic nerve block activity relative to Lidocaine. In kind it is functional, Bufo bufo. Set-up: unit not given here.

`Fc1ccc2c(c1)N(CCCN1CCCCC1)c1cc(F)ccc1CC2`: the pKa (in general, the pH at which an ionisable group is half protonated) in data set [1] worked out at 7.6.
For the compound `Cl.Fc1ccc2c(c1)N(CCCN1CCCCC1)c1cc(F)ccc1CC2`, the Activity in the data set on Sciatic nerve [2] was 0.039%; with Sciatic nerve [4], 48.7. Besides, the “Latent period of sciatic nerve block” value in the data set with Sciatic nerve [3] amounted to 39.8 min.
`CCN(CC)CCCN1c2cc(F)ccc2CCc2ccc(F)cc21` gave a pKa in data set [1] of 7.7.
On to `CCN(CC)CC(=O)Nc1c(C)cccc1C.Cl`, for which the Activity was 0.019% in the data set on Sciatic nerve [2] and 100 in the data set with Sciatic nerve [4]. The “Latent period of sciatic nerve block” value in the data set on Sciatic nerve [3] amounted to 37.2 min.
In data set [1], `CN(C)CCCN1c2cc(F)ccc2CCc2ccc(F)cc21` yielded a pKa of 7.7.
Consider `CN(C)CCCN1c2cc(F)ccc2CCc2ccc(F)cc21.Cl`, for which the Activity is listed as 0.094% in the data set on Sciatic nerve [2] and 20.2 in the data set with Sciatic nerve [4]. Moreover, in the data set with Sciatic nerve [3], the “Latent period of sciatic nerve block” value worked out at 30.7 min.
The like results for `Cl.Fc1ccc2c(c1)N(CCCN1CCCC1)c1cc(F)ccc1CC2` were, in that order, 0.069%, 27.5 and 40.6 min.
`Fc1ccc2c(c1)N(CCCN1CCCC1)c1cc(F)ccc1CC2` had a pKa in data set [1] of 7.9.
With `Fc1ccc2c(c1)N(CCCN1CCOCC1)c1cc(F)ccc1CC2`, the pKa in data set [1] came to 7.6.
For the compound `Cl.Fc1ccc2c(c1)N(CCCN1CCOCC1)c1cc(F)ccc1CC2`, the Activity in the data set with Sciatic nerve [2] turned out to be 0.029%; in the data set with Sciatic nerve [4], 65.5. Further, in the data set on Sciatic nerve [3], the “Latent period of sciatic nerve block” value was found to be 37.3 min.
Taken in the same sequence, the figures for `CCN(CC)CCCN1c2cc(F)ccc2CCc2ccc(F)cc21.Cl` were 0.018%, 105.5 and 38.2 min.
